Reference: patent publication EP0975604B1, “PYRIDAZINONES AS INHIBITORS OF CYCLOOXYGENASE-2” (MERCK FROSST CANADA & CO., priority 1997, dated 1998)

Columns and labels:
[1] = target: T1, COX-2 (Homo sapiens, UniProt P35354); experiment: Human whole blood assay, COX-2 (LPS-induced PGE2 production); format: cell-based; conditions: 24 hours at 37°C, read-out: COX-2 (IC50 µM) HWB
T1 construct: endogenous in cells; host or cells: fresh heparinized human whole blood from volunteers, induced with LPS
T1 sequence (P35354 18-604): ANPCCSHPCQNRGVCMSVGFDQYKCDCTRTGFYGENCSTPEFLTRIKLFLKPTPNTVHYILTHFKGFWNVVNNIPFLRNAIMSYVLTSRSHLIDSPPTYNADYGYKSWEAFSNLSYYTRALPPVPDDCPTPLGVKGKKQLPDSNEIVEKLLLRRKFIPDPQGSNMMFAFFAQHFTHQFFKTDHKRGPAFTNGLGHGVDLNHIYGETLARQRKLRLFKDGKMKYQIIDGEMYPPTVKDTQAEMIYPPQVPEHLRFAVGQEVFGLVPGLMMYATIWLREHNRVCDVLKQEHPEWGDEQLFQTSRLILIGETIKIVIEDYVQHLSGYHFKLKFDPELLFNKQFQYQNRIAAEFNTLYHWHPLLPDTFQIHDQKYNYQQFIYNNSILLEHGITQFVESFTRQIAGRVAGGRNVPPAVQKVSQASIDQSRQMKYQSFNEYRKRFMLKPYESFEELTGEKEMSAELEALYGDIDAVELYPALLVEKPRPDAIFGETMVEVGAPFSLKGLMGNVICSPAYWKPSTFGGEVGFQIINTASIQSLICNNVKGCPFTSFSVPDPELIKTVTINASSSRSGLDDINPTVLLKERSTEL
Source text: (§1) As well, platelets in whole blood contain a large amount of the COX-1 enzyme. Immediately following blood clotting, platelets are activated through a thrombin-mediated mechanism. This reaction results in the production of thromboxane B2 (TxB2) via activation of COX-1. Thus, the effect of test compounds on TxB2 levels following blood clotting can be examined and used as an index for COX-1 activity. Therefore, the degree of selectivity by the test compound can be determined by measuring the levels of PGE2 after LPS induction (COX-2) and TxB2 following blood clotting (COX-1) in the same assay.
Fresh blood is collected in heparinized tubes by venipuncture from both male and female volunteers. The subjects have no apparent inflammatory conditions and have not taken any NSAIDs for at least 7 days prior to blood collection. Plasma is immediately obtained from a 2mL blood aliquot to use as blank (basal levels of PGE2).

[2] = target: T1, COX-2; experiment: Whole cell assay for COX-2 using CHO transfected cell line (CHO [hCOX-2]); format: cell-based; conditions: CHO[hCOX-2] cells, 10 µM AA, PGE2 synthesis
Description: Chinese hamster ovary (CHO) cell lines which have been stably transfected with an eukaryotic expression vector pCDNAIII containing either the human COX-1 or COX-2 cDNA's are used for the assay. These cell lines are referred to as CHO [hCOX-1] and CHO [hCOX-2], respectively. […] Cells (0.3 x 10^6 cells in 200 µl) are preincubated with 3 µl of the test drug or DMSO vehicle for 15 min at 37°C. […] Cells are then challenged in the presence or absence of drug with the AA/HBSS solution to yield a final concentration of 0.5 µM AA in the CHO[hCOX-1] assay and a final concentration of 10 µM AA in the CHO[hCOX-2] assay. […] The samples are centrifuged at 300 x g at 4°C for 10 min, and an aliquot of the clarified supernatant is appropriately diluted for the determination of PGE2 levels using an enzyme-linked immunoassay for PGE2 (Correlate PGE2 enzyme immunoassay kit, Assay Designs, Inc.). Cyclooxygenase activity in the absence of test compounds is determined as the difference in PGE2 levels of cells challenged with arachidonic acid versus the PGE2 levels in cells mock-challenged with ethanol vehicle. Inhibition of PGE2 synthesis by test compounds is calculated as a percentage of the activity in the presence of drug versus the activity in the positive control samples.
(§2) In the assay, inhibition is determined by measuring the amount of prostaglandin E2 (PGE2) synthesized in the presence of arachidonic acid, cyclooxygenase-1 or cyclooxygenase-2 and a putative inhibitor.

[3] = target: T2, COX-1 (Homo sapiens, UniProt P23219); experiment: Assay of COX-1 activity from U937 cell microsomes; format: biochemical; parameters: endogenous in cells; host or cells: U937 cells, 100,000 x g microsomal pellet; conditions: PGE2, read-out: COX-1 (IC50 µM) U-937
T2 sequence (P23219 24-599): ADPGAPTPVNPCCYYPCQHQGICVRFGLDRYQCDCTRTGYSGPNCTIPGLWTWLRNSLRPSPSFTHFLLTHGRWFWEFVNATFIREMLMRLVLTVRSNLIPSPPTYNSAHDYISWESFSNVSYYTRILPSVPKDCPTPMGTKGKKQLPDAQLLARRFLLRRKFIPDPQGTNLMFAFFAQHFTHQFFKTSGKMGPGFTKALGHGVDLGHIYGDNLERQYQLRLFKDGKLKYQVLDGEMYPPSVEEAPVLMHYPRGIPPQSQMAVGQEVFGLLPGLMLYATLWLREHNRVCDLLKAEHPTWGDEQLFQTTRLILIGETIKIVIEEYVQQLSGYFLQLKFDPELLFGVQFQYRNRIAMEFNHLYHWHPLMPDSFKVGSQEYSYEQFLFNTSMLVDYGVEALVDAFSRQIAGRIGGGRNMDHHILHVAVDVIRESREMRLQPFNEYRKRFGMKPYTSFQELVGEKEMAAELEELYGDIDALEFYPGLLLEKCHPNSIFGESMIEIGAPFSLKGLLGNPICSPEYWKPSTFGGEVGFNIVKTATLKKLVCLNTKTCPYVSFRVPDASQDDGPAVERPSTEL
Description: U 937 cells are pelleted by centrifugation at 500 x g for 5 min and washed once with phosphate-buffered saline and repelleted. Cells are resuspended in homogenization buffer consisting of 0.1 M Tris-HCl, pH 7.4, 10 mM EDTA, 2 µg/ml leupeptin, 2 µg/ml soybean trypsin inhibitor, 2 µg/ml aprotinin and 1 mM phenyl methyl sulfonyl fluoride. The cell suspension is sonicated 4 times for 10 sec and is centrifuged at 10,000 x g for 10 min at 4° C. The supernatant is centrifuged at 100,000 x g for 1 hr at 4 °C. The 100,000 x g microsomal pellet is resuspended in 0.1 M Tris-HCl, pH 7.4, 10 mM EDTA to approximately 7 mg protein/ml and stored at -80° C.
Assays are performed in duplicate in a final volume of 250 µl. Initially, 5 µl of DMSO vehicle or drug in DMSO are added to 20 µl of 0.1 M Tris-HCl buffer, pH 7.4 containing 10 mM EDTA in wells of a 96-deepwell polypropylene titre plate. 200 µl of the microsomal preparation are then added and pre-incubated for 15 min at room temperature before addition of 25 µl of […] arachidonic acid in […] Tris-HCl and 10 mM EDTA, pH 7.4. Samples are incubated for 40 min at room temperature and the reaction is stopped by the addition of 25 µl of 1 N HCl. Samples are neutralized with 25 µl of 1 N NaOH prior to quantitation of PGE2 content by radioimmunoassay (Dupont-NEN or Amersham assay kits). Cyclooxygenase activity is defined as the difference between PGE2 levels in samples incubated in the presence of arachidonic acid and ethanol vehicle.
as §2

[4] = target: T2, COX-1; experiment: Human whole blood assay, COX-1 (clotting-induced TxB2 production); format: cell-based; parameters: endogenous in cells; host or cells: platelets in fresh human whole blood left to clot; conditions: 1 hour at 37°C, read-out: COX-1 (IC50 µM) HWB
Description: as §1, with “Human whole blood provides a protein and cell-rich milieu appropriate for the study of biochemical efficacy of anti-inflammatory compounds such as selective COX-2 inhibitors. […] This is consistent with the observation that COX-2 inhibitors have no effect on PGE2 production in normal blood. These inhibitors are active only after incubation of human whole blood with LPS, which induces COX-2. This assay can be used to evaluate the inhibitory effect of selective COX-2 inhibitors on PGE2 production. As” for “As”
Fresh blood is collected into vacutainers containing no anticoagulants. Aliquots of 500µL are immediately transferred to siliconized microcentrifuge tubes preloaded with 2µL of either DMSO or a test compound at final concentrations varying from 10nM to 30µM. […]

Compound	IC50 [1] [µM]	IC50 [2] [µM]	IC50 [3] [µM]	IC50 [4] [µM]
CS(=O)(=O)c1ccc(-c2cnn(-c3ccccc3)c(=O)c2-c2ccccc2)cc1 [Example 1, 5-(4-Methylsulfonyl)phenyl-2-phenyl-4-phenyl-2H-pyridazin-3-one]	4.7	0.08	–	–
Cn1ncc(-c2ccc(S(C)(=O)=O)cc2)c(-c2ccccc2)c1=O [Example 2, 2-Methyl-5-(4-methylsulfonyl)phenyl-4-phenyl-2H-pyridazin-3-one]	21	0.7	–	–
CS(=O)(=O)c1ccc(-c2cnn(CC3CC3)c(=O)c2-c2ccccc2)cc1 [Example 3, 2-Cyclopropylmethyl-5-(4-methylsulfonyl)phenyl-4-phenyl-2H-pyridazin-3-one]	1.3	0.07	> 10	–
CS(=O)(=O)c1ccc(-c2cnn(CC(F)(F)F)c(=O)c2-c2ccccc2)cc1 [Example 4, 5-(4-Methylsulfonyl)phenyl-4-phenyl-2-(2,2,2-trifluoroethyl)-2H-pyridazin-3-one]	11.1	0.5	> 10	–
CS(=O)(=O)c1ccc(-c2cnn(Cc3ccccc3)c(=O)c2-c2ccccc2)cc1 [Example 5, 2-Benzyl-5-(4-methylsulfonyl)phenyl-4-phenyl-2H-pyridazin-3-one]	–	–	> 10	> 50
CC(C)n1ncc(-c2ccc(S(C)(=O)=O)cc2)c(-c2ccccc2)c1=O [Example 6, 2-Isopropyl-5-(4-methylsulfonyl)phenyl-4-phenyl-2H-pyridazin-3-one]	2.6	0.6	> 10	–
CS(=O)(=O)c1ccc(-c2cnn(CC3CC3)c(=O)c2-c2ccc(F)c(F)c2)cc1 [Example 7, 2-Cyclopropylmethyl-4-(3,4-difluorophenyl)-5-(4-methylsulfonyl)phenyl-2H-pyridazin-3-one]	3.2	0.16	> 10	–
CS(=O)(=O)c1ccc(-c2cnn(Cc3ccccn3)c(=O)c2-c2ccccc2)cc1 [Example 8, 5-(4-Methylsulfonyl)phenyl-4-phenyl-2-(2-pyridylmethyl)-2H-pyridazin-3-one]	> 33	~2	> 10	–
CS(=O)(=O)c1ccc(-c2cnn(Cc3ccccc3)c(=O)c2-c2ccc(F)c(F)c2)cc1 [Example 9, 2-Benzyl-4-(3,4-difluorophenyl)-5-(4-methylsulfonyl)phenyl-2H-pyridazin-3-one]	1.9	0.04	3 to 10	–
CS(=O)(=O)c1ccc(-c2cnn(Cc3ccc(F)cc3)c(=O)c2-c2ccccc2)cc1 [Example 10, 2-(4-Fluorobenzyl)-5-(4-methylsulfonyl)phenyl-4-phenyl-2H-pyridazin-3-one]	0.9	0.17	> 10	–
COC(=O)Cn1ncc(-c2ccc(S(C)(=O)=O)cc2)c(-c2ccccc2)c1=O [Example 11, 2-Carbomethoxymethyl-5-(4-methylsulfonyl)phenyl-4-phenyl-2H-pyridazin-3-one]	9.2	5	> 10	–
CS(=O)(=O)c1ccc(-c2cnn(Cc3ccccc3)c(=O)c2-c2ccc(F)cc2)cc1 [Example 12, 2-Benzyl-4-(4-fluorophenyl)-5-(4-methylsulfonyl)phenyl-2H-pyridazin-3-one]	–	–	3 to 10	–
